Laboratory results reported in PubChem BioAssay (NCI).
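Following 48 hours of exposure in 96-well plates, responses at five concentrations were used to interpolate endpoints linearly. GI50 marks 50% less growth. TGI denotes the concentration required for complete inhibition of growth.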

Tests used:
Assay in all cases: growth of human tumour cells (NCI), 48 h
SK-MEL-5 melanoma = tested on: SK-MEL-5 melanoma
TK-10 renal = tested on: TK-10 renal
SF-268 CNS = tested on: SF-268 CNS
MDA-N = tested on: MDA-N
LOX IMVI melanoma = tested on: LOX IMVI melanoma
DU-145 prostate = tested on: DU-145 prostate
MALME-3M melanoma = tested on: MALME-3M melanoma
OVCAR-8 ovarian = tested on: OVCAR-8 ovarian
SK-OV-3 ovarian = tested on: SK-OV-3 ovarian
NCI-H23 lung = tested on: NCI-H23 lung

Structure (SMILES)	TGI (SK-MEL-5 melanoma) [µM]	TGI (TK-10 renal) [µM]	TGI (SF-268 CNS) [µM]	TGI (MDA-N) [µM]	TGI (LOX IMVI melanoma) [µM]	TGI (DU-145 prostate) [µM]	TGI (MALME-3M melanoma) [µM]	TGI (OVCAR-8 ovarian) [µM]	TGI (SK-OV-3 ovarian) [µM]	TGI (NCI-H23 lung) [µM]	GI50 (SK-MEL-5 melanoma) [µM]	GI50 (SF-268 CNS) [µM]	GI50 (NCI-H23 lung) [µM]	GI50 (LOX IMVI melanoma) [µM]	GI50 (MALME-3M melanoma) [µM]	GI50 (OVCAR-8 ovarian) [µM]	GI50 (SK-OV-3 ovarian) [µM]
O=C(NNC(=O)c1ccco1)c1ccco1	> 100	> 100	> 100	> 100	> 100	> 100	> 100	> 100	> 100	–	–	–	–	–	–	–	–
S=C(NCc1ccccn1)N/N=C/c1ccccn1	1.5	> 100	> 100	> 100	33.3	> 100	38.3	> 100	97.9	–	–	–	–	–	–	–	–
Nc1nc(N)c2nc(CN(C=O)c3ccc(C(=O)O)cc3)cnc2n1	> 100	> 100	> 100	> 100	> 100	> 100	> 100	> 100	> 100	> 100	–	–	–	–	–	–	–
Cc1ccc(C(=O)N/N=C(\N=Nc2ccc([N+](=O)[O-])cc2)c2ccc(N(CCC#N)CCC#N)cc2C)cc1	> 100	> 100	> 100	> 100	> 100	> 100	> 100	> 100	> 100	> 100	–	–	–	–	–	–	–
CC1(C)N=C(C(N)=O)c2[nH]cnc2N1	> 100	> 100	> 100	> 100	> 100	> 100	> 100	> 100	> 100	> 100	–	–	–	–	–	–	–
O=C1NC(N2CCCC(CO)C2)=N/C1=C\c1cccs1 (configuration not stated)	> 100	> 100	> 100	> 100	> 100	> 100	> 100	> 100	> 100	> 100	–	–	–	–	–	–	–
Cc1ccc(/C=c2\cc3oc(=O)c4cccc(c4-3)c2=O)cc1	–	> 100	> 100	–	> 100	> 100	> 100	> 100	> 100	> 100	–	–	–	–	–	–	–
CSc1c(C(C)=O)c(O)n(-c2ccc(C)cc2)c(=O)c1C#N	> 100	> 100	> 100	–	> 100	> 100	> 100	> 100	> 100	> 100	–	–	–	–	–	–	–
CCOC(=O)C(O)(CC1=NC(C(=O)OC)(C(=O)OC)C(c2cccc(C=O)c2)O1)C(=O)OCC (configuration not stated)	> 100	> 100	–	> 100	> 100	> 100	–	> 100	> 100	> 100	–	–	–	–	–	–	–
O=C1Cc2cc3ccccc3nc2-c2ccccc2N1	> 100	> 100	> 100	–	> 100	> 100	> 100	> 100	> 100	> 100	–	–	–	–	–	–	–
NC(=S)NNCC(=O)CC(O)(C(F)(F)F)C(F)(F)Cl (configuration not stated)	> 100	> 100	–	> 100	> 100	> 100	> 100	> 100	> 100	> 100	–	–	–	–	–	–	–
OC12CCC3(OC4CCCCO4)c4ccccc4C3C1c1ccccc12 (configuration not stated)	> 100	> 100	> 100	–	> 100	–	> 100	> 100	> 100	> 100	–	–	–	–	–	–	–
CC(=O)OC1CCn2c1nc1cc([N+](=O)[O-])c(C)cc12 (configuration not stated)	> 100	–	> 100	> 100	> 100	> 100	> 100	> 100	> 100	> 100	–	–	–	–	–	–	–
Oc1c(Br)cc2c(c1Br)-c1c(c(O)c3c4c1=NCCC=4C=N3)NCC2	23.2	–	23.2	–	20.9	–	–	28.5	54.8	30.3	–	–	–	–	–	–	–
C[C@]12CC[C@H]3[C@@H](CC=C4C[C@@H](O)CC[C@@]43C)[C@@H]1C/C(=C\c1cccnc1)[C@@H]2O	–	66.8	–	> 100	4.46	67.4	> 100	36.3	34.2	> 100	–	–	–	–	–	–	–
Brc1ccc2[nH]c3c(C4=NCCC4)nccc3c2c1	> 34.2	–	> 70.4	–	> 46.6	–	16.1	> 100	> 100	> 79.7	–	–	–	–	–	–	–
[CH3][Sn]([CH3])([CH3])[S]C(=S)N1CCOCC1	2.62	–	> 100	–	6.75	–	14.8	> 85.4	29.3	4.94	0.881	3.65	0.345	1.39	3.49	3.69	9.81
C/C(=C\C(=O)Nc1ccc2n[nH]nc2c1)Nc1ccc2n[nH]nc2c1	> 100	> 100	> 100	–	> 100	–	> 100	> 100	> 100	> 100	–	–	–	–	–	–	–
ClC1=NSSC1(Cl)Cl	28.8	–	–	62.1	> 100	> 100	> 100	87.2	–	> 100	–	–	–	–	–	–	–
Nc1cccc(-c2cc(=O)c3cc4c(cc3[nH]2)OCO4)c1	–	> 100	> 100	0.474	59.7	> 100	> 100	> 22.6	> 28.5	22.6	–	–	–	–	–	–	–
COC(=O)c1ccccc1CC1Cc2c(C)ccc(C)c2C1=O (configuration not stated)	34	71.2	> 100	–	37.4	> 100	57.5	> 100	> 100	55.2	–	–	–	–	–	–	–
S=c1ncc(-c2cncc(-c3cnc(=S)[nH]c3)n2)c[nH]1	> 100	> 100	> 100	> 100	–	> 100	> 100	> 100	> 100	> 100	–	–	–	–	–	–	–
Nc1nc(Cl)c2ncn(CCCC(c3ccccc3)P(=O)(O)O)c2n1 (configuration not stated)	> 100	> 100	> 100	–	> 100	–	> 100	> 100	> 100	> 100	–	–	–	–	–	–	–
NCCCN(CCCCN(CCCN)CCCc1ccccc1)CCCc1ccccc1	3.36	25.9	8.32	3.23	6.38	23.8	–	27	14.1	17.4	–	–	–	–	–	–	–
